Assay results as given in PubChem BioAssay (NCI).
“And” between values parts separate entries of the source, which are not always exact repeats. Identical values can stand only once.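 Compound exposure: 48 hours, 5 concentrations, 96-well plates. Abbreviation: GI50, concentration required for 50% inhibition of growth. Definition used: TGI = concentration required for complete inhibition of growth.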

Columns and labels:
Test in all cases: growth of human tumour cells (NCI), 48 h
UO-31 renal = system: UO-31 renal
SK-OV-3 ovarian = system: SK-OV-3 ovarian
SN12C renal = system: SN12C renal
SK-MEL-2 melanoma = system: SK-MEL-2 melanoma
CAKI-1 renal = system: CAKI-1 renal
OVCAR-3 ovarian = system: OVCAR-3 ovarian
NCI/ADR-RES ovarian = system: NCI/ADR-RES ovarian
SF-268 CNS = system: SF-268 CNS
OVCAR-4 ovarian = system: OVCAR-4 ovarian
T-47D breast = system: T-47D breast

| SMILES | GI50 (UO-31 renal) | TGI (UO-31 renal) | GI50 (SK-OV-3 ovarian) | TGI (SK-OV-3 ovarian) | GI50 (SN12C renal) | TGI (SN12C renal) | GI50 (SK-MEL-2 melanoma) | TGI (SK-MEL-2 melanoma) | GI50 (CAKI-1 renal) | TGI (CAKI-1 renal) | GI50 (OVCAR-3 ovarian) | TGI (OVCAR-3 ovarian) | GI50 (NCI/ADR-RES ovarian) | TGI (NCI/ADR-RES ovarian) | GI50 (SF-268 CNS) | TGI (SF-268 CNS) | TGI (OVCAR-4 ovarian) | GI50 (OVCAR-4 ovarian) | GI50 (T-47D breast) | TGI (T-47D breast) |
| --- | --- | --- | --- | --- | --- | --- | --- | --- | --- | --- | --- | --- | --- | --- | --- | --- | --- | --- | --- | --- |
| COc1cc2c(c(OC)c1OC)-c1c(c3ccc([N+](=O)[O-])cc3c(=O)n1CCCBr)C2=O | 14.4 µM | 72.5 µM | > 100 µM | > 100 µM | 19.7 µM | > 100 µM | > 100 µM | > 100 µM | 13.4 µM | 61.3 µM | > 100 µM | > 100 µM | 70.6 µM | > 100 µM | 4.83 µM | 45.8 µM | – | – | – | – |
| N#CC(C(=O)CCC(=O)Nc1cccc(C(F)(F)F)c1)c1ccccc1 (centres undefined) | – | > 100 µM | – | – | – | > 100 µM | – | > 100 µM | – | > 100 µM | – | > 100 µM | – | – | – | > 100 µM | > 100 µM | – | – | – |
| COc1ccccc1NC(=O)C1=C(C)NC(C)=C(C(=O)Nc2ccccc2OC)C1c1ccccc1Cl | – | > 100 µM | – | > 100 µM | – | > 100 µM | – | > 100 µM | – | > 100 µM | – | > 100 µM | – | – | – | > 100 µM | > 100 µM | – | – | – |
| CC(C)CCCCCCCCCCCCC(=O)NCC(=O)NC1C(C)OC(Nc2ncnc3nc[nH]c23)C(O)C1O (centres undefined) | 0.00201 µM | – | 0.000454 µM and 0.00314 µM | 0.00397 µM and 0.0286 µM | 0.00548 µM | 0.683 µM | 0.0183 µM | – | 0.00264 µM | – | – | 0.0024 µM | – | 0.0716 µM | 0.000965 µM | 0.343 µM | 0.00803 µM | 0.0148 µM | – | – |
| CCOC(=O)c1c(-c2ccc(OC)c(O)c2)c(C#N)c(=S)n(C2OC(COC(C)=O)C(OC(C)=O)C(OC(C)=O)C2OC(C)=O)c1-c1ccccc1 (centres undefined) | 37 µM and > 100 µM | > 100 µM | – | – | 33.8 µM and > 100 µM | > 100 µM | – | – | 34.5 µM and > 100 µM | > 100 µM | 20.9 µM and > 100 µM | 45.2 µM and > 100 µM | 48.6 µM and > 100 µM | > 100 µM | 34 µM and > 100 µM | > 100 µM | > 100 µM | 47.2 µM and > 100 µM | – | – |
| CC(=O)[CH-]C(C)=O.CC(=O)[CH-]C(C)=O.[Cl-].[O]=[V] | 63.3 µM | > 100 µM | – | – | 58.1 µM | > 100 µM | 26.8 µM | 77.1 µM | 55.3 µM | > 100 µM | 25.5 µM | 51.6 µM | – | – | – | – | – | – | – | – |
| O=C1c2cc3c(cc2-c2c1c1ccc(F)cc1c(=O)n2C[C@H](O)[C@H](O)[C@H](O)CO)OCO3 | – | – | 0.186 µM | 0.694 µM | 0.19 µM | 0.792 µM | 0.233 µM | 0.596 µM | – | – | 0.167 µM | 0.431 µM | 0.207 µM | 2.14 µM | 0.0704 µM | 2.97 µM | 34.9 µM | 0.28 µM | 0.0419 µM | 0.391 µM |
| O=C(C=Nc1ccccc1S)c1ccco1 | – | 6.77 µM | 3.2 µM | 10.1 µM | – | 21.5 µM | – | 33.1 µM | – | 33.7 µM | – | 31.2 µM | – | – | – | 40.7 µM | 26.4 µM | – | – | – |
| CC[O-].CC[O-].O=C([CH-]C(=O)c1ccccc1)CCCCCCC(=O)[CH-]C(=O)c1ccccc1.[Ti+4] | > 100 µM | > 100 µM | > 100 µM | > 100 µM | > 100 µM | > 100 µM | > 100 µM | > 100 µM | > 100 µM | > 100 µM | > 100 µM | > 100 µM | – | – | > 100 µM | > 100 µM | > 100 µM | > 100 µM | – | – |
